Test results reported in patent US20230265103A1 (TME Therapeutics LLC, priority 2021, published 2023).

Target: T1, PIKFYVE (Homo sapiens, UniProt Q9Y2I7)
T1 construct: purchased Eurofins (KINOMEscan); host or cells: E. coli BL21-derived (T7 phage display) or HEK-293
Experiment: KINOMEscan Kinase Assay (Eurofins), PIKFYVE inhibitory activity
Assay type: binding
Details: for IC50: KINOMEscan; for inhibition at 0.05 µM: @ 50 nM

T1 sequence (Q9Y2I7 whole entry): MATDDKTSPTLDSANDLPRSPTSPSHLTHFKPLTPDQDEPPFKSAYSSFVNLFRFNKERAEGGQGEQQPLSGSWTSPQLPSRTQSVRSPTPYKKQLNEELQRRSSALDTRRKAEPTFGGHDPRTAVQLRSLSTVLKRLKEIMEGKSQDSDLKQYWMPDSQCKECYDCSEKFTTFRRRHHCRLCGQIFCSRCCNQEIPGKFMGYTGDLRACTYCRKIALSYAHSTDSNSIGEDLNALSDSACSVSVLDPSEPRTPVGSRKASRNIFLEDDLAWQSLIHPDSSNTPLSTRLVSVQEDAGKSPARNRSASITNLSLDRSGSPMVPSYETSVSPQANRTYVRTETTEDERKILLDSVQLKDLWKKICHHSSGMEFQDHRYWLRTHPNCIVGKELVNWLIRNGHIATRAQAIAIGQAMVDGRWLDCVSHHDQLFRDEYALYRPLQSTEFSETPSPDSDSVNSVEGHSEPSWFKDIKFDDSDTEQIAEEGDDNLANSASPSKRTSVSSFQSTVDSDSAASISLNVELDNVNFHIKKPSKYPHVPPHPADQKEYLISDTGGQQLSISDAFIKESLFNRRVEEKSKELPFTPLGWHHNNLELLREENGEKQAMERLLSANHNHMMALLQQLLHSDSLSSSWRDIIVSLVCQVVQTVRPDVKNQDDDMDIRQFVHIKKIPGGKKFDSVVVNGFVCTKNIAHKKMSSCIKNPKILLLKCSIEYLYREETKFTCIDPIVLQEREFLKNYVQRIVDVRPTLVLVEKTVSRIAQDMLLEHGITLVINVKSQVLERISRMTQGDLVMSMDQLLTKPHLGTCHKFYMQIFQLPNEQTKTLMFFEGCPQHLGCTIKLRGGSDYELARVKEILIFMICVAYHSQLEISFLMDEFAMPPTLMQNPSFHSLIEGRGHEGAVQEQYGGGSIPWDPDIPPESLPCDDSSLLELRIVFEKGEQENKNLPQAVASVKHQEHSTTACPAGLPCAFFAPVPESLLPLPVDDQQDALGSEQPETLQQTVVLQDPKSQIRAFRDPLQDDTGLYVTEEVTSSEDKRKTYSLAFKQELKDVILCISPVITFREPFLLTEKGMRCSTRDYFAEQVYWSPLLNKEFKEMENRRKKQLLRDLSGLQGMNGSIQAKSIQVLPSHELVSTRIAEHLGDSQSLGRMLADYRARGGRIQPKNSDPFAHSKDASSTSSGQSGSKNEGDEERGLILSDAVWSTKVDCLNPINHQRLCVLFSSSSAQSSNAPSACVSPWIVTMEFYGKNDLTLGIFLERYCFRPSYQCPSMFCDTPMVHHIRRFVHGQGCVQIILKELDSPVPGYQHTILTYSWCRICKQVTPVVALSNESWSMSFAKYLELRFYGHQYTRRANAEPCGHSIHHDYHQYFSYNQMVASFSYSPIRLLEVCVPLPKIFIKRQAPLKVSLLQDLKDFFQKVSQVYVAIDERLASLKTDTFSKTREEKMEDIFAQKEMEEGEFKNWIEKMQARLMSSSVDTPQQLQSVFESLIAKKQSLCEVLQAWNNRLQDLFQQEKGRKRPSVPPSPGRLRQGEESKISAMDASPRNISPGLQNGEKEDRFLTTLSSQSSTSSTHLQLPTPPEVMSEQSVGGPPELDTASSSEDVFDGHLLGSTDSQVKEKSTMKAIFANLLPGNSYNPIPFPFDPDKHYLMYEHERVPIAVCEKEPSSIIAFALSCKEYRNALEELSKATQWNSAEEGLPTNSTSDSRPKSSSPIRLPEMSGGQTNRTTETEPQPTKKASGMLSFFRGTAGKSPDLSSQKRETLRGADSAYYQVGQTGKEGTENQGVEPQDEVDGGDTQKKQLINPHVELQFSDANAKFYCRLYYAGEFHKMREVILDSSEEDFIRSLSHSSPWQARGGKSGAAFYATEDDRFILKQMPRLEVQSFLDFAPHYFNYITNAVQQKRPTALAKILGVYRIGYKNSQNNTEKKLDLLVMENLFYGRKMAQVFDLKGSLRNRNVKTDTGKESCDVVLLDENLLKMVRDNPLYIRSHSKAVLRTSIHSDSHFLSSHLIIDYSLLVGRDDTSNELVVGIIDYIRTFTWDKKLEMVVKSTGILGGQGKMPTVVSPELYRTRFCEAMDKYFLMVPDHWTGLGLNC

Row | Structure (SMILES) | IC50 | other results
1 | CO[C@@H](C)c1cccc(-c2ccn(-c3cc(N4CCOCC4)c4sc(CN5CCOCC5)cc4n3)n2)c1 (single isomer, unassigned) [Ex. 212, 4-(5-(3-(3-(1-methoxyethyl)phenyl)-1H-pyrazol-1-yl)-2-(morpholinomethyl)thieno[3,2-b]pyridin-7-yl)morpholine] |  | inhibition at 0.005 µM (@ 5 nM): 0%
2 | COc1cccc(-c2ccn(-c3nc(N4CCOCC4)c4sc(CN5CCN(S(C)(=O)=O)CC5)cc4n3)n2)c1 [Ex. 3, 4-(2-(3-(3-methoxyphenyl)-1H-pyrazol-1-yl)-6-((4-(methylsulfonyl)piperazin-1-yl)methyl)thieno[3,2-d]pyrimidin-4-yl)morpholine] | 1 to 10 nM | 
3 | Cc1cccc(-c2ccn(-c3nc(N4CCOCC4)c4sc(CN5CCC(C(C)(C)O)CC5)cc4n3)n2)c1 [Ex. 5, 2-(1-((4-morpholino-2-(3-(m-tolyl)-1H-pyrazol-1-yl)thieno[3,2-d]pyrimidin-6-yl)methyl)piperidin-4-yl)propan-2-ol] |  | inhibition at 0.05 µM: 100%
4 | Cc1cccc(-c2ccn(-c3nc(N4CCOCC4)c4sc(CN5CCC(N(C)S(C)(=O)=O)CC5)cc4n3)n2)c1 [Ex. 6, N-methyl-N-(1-((4-morpholino-2-(3-(m-tolyl)-1H-pyrazol-1-yl)thieno[3,2-d]pyrimidin-6-yl)methyl)piperidin-4-yl)methanesulfonamide] |  | inhibition at 0.05 µM: 100%
5 | CC(=O)N(C)C1CCN(Cc2cc3nc(-n4ccc(-c5cccc(C)c5)n4)nc(N4CCOCC4)c3s2)CC1 [Ex. 7, N-methyl-N-(1-((4-morpholino-2-(3-(m-tolyl)-1H-pyrazol-1-yl)thieno[3,2-d]pyrimidin-6-yl)methyl)piperidin-4-yl)acetamide] |  | inhibition at 0.05 µM: 100%
6 | Cc1cccc(-c2ccn(-c3nc(N4CCOCC4)c4nc(CN5CCN(S(C)(=O)=O)CC5)sc4n3)n2)c1 [Ex. 9, 4-(2-((4-(methylsulfonyl)piperazin-1-yl)methyl)-5-(3-(m-tolyl)-1H-pyrazol-1-yl)thiazolo[5,4-d]pyrimidin-7-yl)morpholine] | 1 to 10 nM | 
7 | Cc1cccc(-c2ccn(-c3nc(N4CCOCC4)c4nc(CN5CCN(S(C)(=O)=O)CC5)[nH]c4n3)n2)c1 [Ex. 10, 4-(8-((4-(methylsulfonyl)piperazin-1-yl)methyl)-2-(3-(m-tolyl)-1H-pyrazol-1-yl)-9H-purin-6-yl)morpholine] | < 1 nM | 
8 | Cc1cccc(-c2ccn(-c3nc(N4CCOCC4)c4nc(C(C)N5CCN(S(C)(=O)=O)CC5)sc4n3)n2)c1 (stereo not drawn) [Ex. 12, 4-(2-(1-(4-(methylsulfonyl)piperazin-1-yl)ethyl)-5-(3-(m-tolyl)-1H-pyrazol-1-yl)thiazolo[5,4-d]pyrimidin-7-yl)morpholine] | 1 to 10 nM | 
9 | Cc1cccc(-c2ccn(-c3nc(N4CCOCC4)c4nc(CN5CCC(C(C)(C)O)CC5)[nH]c4n3)n2)c1 [Ex. 13, 2-(1-((6-morpholino-2-(3-(m-tolyl)-1H-pyrazol-1-yl)-9H-purin-8-yl)methyl)piperidin-4-yl)propan-2-ol] | 1 to 10 nM | 
10 | Cc1cccc(-c2ccn(-c3nc(N4CCOCC4)c4nc(CN5CCOCC5)[nH]c4n3)n2)c1 [Ex. 14, 4-((6-morpholino-2-(3-(m-tolyl)-1H-pyrazol-1-yl)-9H-purin-8-yl)methyl) morpholine] | 1 to 10 nM | 
11 | Cc1cccc(-c2ccn(-c3nc(N4CCOCC4)c4nc(CN5CCC(N(C)C)CC5)[nH]c4n3)n2)c1 [Ex. 15, N,N-dimethyl-1-((6-morpholino-2-(3-(m-tolyl)-1H-pyrazol-1-yl)-9H-purin-8-yl)methyl)piperidin-4-amine] | < 1 nM | 
12 | Cc1cccc(-c2ccn(-c3nc(N4CCOCC4)c4nc(CN5CCC(N(C)C)CC5)sc4n3)n2)c1 [Ex. 16, N,N-dimethyl-1-((7-morpholino-5-(3-(m-tolyl)-1H-pyrazol-1-yl)thiazolo[5,4-d]pyrimidin-2-yl)methyl)piperidin-4-amine] | < 1 nM | 
13 | Cc1cccc(-c2ccn(-c3nc(N4CCOCC4)c4sc(C(=O)N5CC[C@@H](N(C)C)C5)cc4n3)n2)c1 [Ex. 21, (R)-(3-(dimethylamino)pyrrolidin-1-yl)(4-morpholino-2-(3-(m-tolyl)-1H-pyrazol-1-yl)thieno[3,2-d]pyrimidin-6-yl)methanone] | < 1 nM | 
14 | Cc1cccc(-c2ccn(-c3nc(N4CCOCC4)c4sc(C(=O)N5CCC(C(C)(C)O)CC5)cc4n3)n2)c1 [Ex. 22, (4-(2-hydroxypropan-2-yl)piperidin-1-yl)(4-morpholino-2-(3-(m-tolyl)-1H-pyrazol-1-yl)thieno[3,2-d]pyrimidin-6-yl)methanone] | < 1 nM | 
15 | Cc1cccc(-c2ccn(-c3nc(N4CCOCC4)c4sc(C(=O)N5CC[C@H](N(C)C)C5)cc4n3)n2)c1 [Ex. 24, (S)-(3-(dimethylamino)pyrrolidin-1-yl)(4-morpholino-2-(3-(m-tolyl)-1H-pyrazol-1-yl)thieno[3,2-d]pyrimidin-6-yl)methanone] | < 1 nM | 
16 | Cc1cccc(-c2ccn(-c3nc(N4CCOCC4)c4sc(C(=O)N5CCN(C)CC5)cc4n3)n2)c1 [Ex. 25, (4-methylpiperazin-1-yl)(4-morpholino-2-(3-(m-tolyl)-1H-pyrazol-1-yl)thieno[3,2-d]pyrimidin-6-yl)methanone] | < 1 nM | 
17 | Cc1cccc(-c2ccn(-c3nc(N4CCOCC4)c4sc(C(C)N5CCN(S(C)(=O)=O)CC5)cc4n3)n2)c1 (stereo not drawn) [Ex. 26, 4-(6-(1-(4-(methylsulfonyl)piperazin-1-yl)ethyl)-2-(3-(m-tolyl)-1H-pyrazol-1-yl)thieno[3,2-d]pyrimidin-4-yl)morpholine] | 1 to 10 nM | 
18 | Cc1cccc(-c2ccn(-c3cc(N4CCOCC4)c4nc(CN5CCN(S(C)(=O)=O)CC5)[nH]c4n3)n2)c1 [Ex. 27, 4-(2-((4-(methylsulfonyl)piperazin-1-yl)methyl)-5-(3-(m-tolyl)-1H-pyrazol-1-yl)-3H-imidazo[4,5-b]pyridin-7-yl)morpholine] | < 1 nM | 
19 | Cc1cccc(-c2ccn(-c3cc(N4CCOCC4)c4nc(CN5CCC(N(C)C)CC5)[nH]c4n3)n2)c1 [Ex. 28, N,N-dimethyl-1-((7-morpholino-5-(3-(m-tolyl)-1H-pyrazol-1-yl)-3H-imidazo[4,5-b]pyridin-2-yl)methyl)piperidin-4-amine] | < 1 nM | 
20 | Cc1cccc(-c2ccn(-c3nc(N4CCOCC4)c4nc(CN5CCOCC5)sc4n3)n2)c1 [Ex. 30, 4-((7-morpholino-5-(3-(m-tolyl)-1H-pyrazolyl)thiazolo[5,4-d]pyrimidin-2-yl)methyl)morpholine] | 1 to 10 nM | 

More lines, main results first:

Row | IC50 | Structure (SMILES) | other results
21 | < 1 nM | Cc1cccc(-c2ccn(-c3nc(N4CCOCC4)c4sc(CN5CCC(N6CCC6)C(F)C5)cc4n3)n2)c1 (stereo not drawn) | 
22 | 1 to 10 nM | CS(=O)(=O)N1CCN(Cc2cc3nc(-n4ccc(-c5cccc(Br)c5)n4)nc(N4CCOCC4)c3s2)CC1 [Ex. 1, 4-(2-(3-(3-bromophenyl)-1H-pyrazol-1-yl)-6-((4-(methylsulfonyl)piperazin-1-yl)methyl)thieno[3,2-d]pyrimidin-4-yl)morpholine] | 
23 | < 1 nM | Cc1cccc(-c2ccn(-c3nc(N4CCOCC4)c4sc(CN5CCC(N(C)C)CC5)cc4n3)n2)c1 [Ex. 4, N, N-dimethyl-1-((4-morpholino-2-(3-(m-tolyl)-1H-pyrazol-1-yl)thieno[3,2-d]pyrimidin-6-yl)methyl)piperidin-4-amine] | 
24 | 1 to 10 nM | Cc1cccc(-c2ccn(-c3nc(N4CCOCC4)c4nc(CN5CCC(N(C)S(C)(=O)=O)CC5)[nH]c4n3)n2)c1 [Ex. 11, N-methyl-N-(1-((6-morpholino-2-(3-(m-tolyl)-1H-pyrazol-1-yl)-9H-purin-8-yl)methyl)piperidin-4-yl)methanesulfonamide] | 
25 | < 1 nM | Cc1cccc(-c2ccn(-c3nc(N4CCOCC4)c4sc(C(C)N5CCC(N(C)C)CC5)cc4n3)n2)c1 (stereo not drawn) [Ex. 17, N,N-dimethyl-1-(1-(4-morpholino-2-(3-(m-tolyl)-1H-pyrazol-1-yl)thieno[3,2-d]pyrimidin-6-yl)ethyl)piperidin-4-amine] | 
26 | < 1 nM | Cc1cccc(-c2ccn(-c3nc(N4CCOCC4)c4sc(CN5CC[C@@H](N(C)C)C5)cc4n3)n2)c1 [Ex. 18, (R)—N,N-dimethyl-1-((4-morpholino-2-(3-(m-tolyl)-1H-pyrazol-1-yl)thieno[3,2-d]pyrimidin-6-yl)methyl)pyrrolidin-3-amine] | 
27 | < 1 nM | Cc1cccc(-c2ccn(-c3nc(N4CCOCC4)c4sc(CN5CC[C@H](N(C)C)C5)cc4n3)n2)c1 [Ex. 19, (S)—N,N-dimethyl-1-((4-morpholino-2-(3-(m-tolyl)-1H-pyrazol-1-yl)thieno[3,2-d]pyrimidin-6-yl)methyl)pyrrolidin-3-amine] | 
28 | < 1 nM | Cc1cccc(-c2ccn(-c3nc(N4CCOCC4)c4sc(CN5CC6C(C5)C6N(C)C)cc4n3)n2)c1 (stereo not drawn) [Ex. 20, N,N-dimethyl-3-((4-morpholino-2-(3-(m-tolyl)-1H-pyrazol-1-yl)thieno[3,2-d]pyrimidin-6-yl)methyl)-3-azabicyclo[3.1.0]hexan-6-amine] | 
29 | < 1 nM | Cc1cccc(-c2ccn(-c3nc(N4CCOCC4)c4sc(C(=O)N5CCC(N(C)C)CC5)cc4n3)n2)c1 [Ex. 23, (4-(dimethylamino)piperidin-1-yl)(4-morpholino-2-(3-(m-tolyl)-1H-pyrazol-1-yl)thieno[3,2-d]pyrimidin-6-yl)methanone] | 
30 | < 1 nM | Cc1cccc(-c2ccn(-c3nc(N4CCOCC4)c4sc(CN5CCOCC5)cc4n3)n2)c1 [Ex. 29, 4-((4-morpholino-2-(3-(m-tolyl)-1H-pyrazol-1-yl)thieno[3,2-d]pyrimidin-6-yl)methyl)morpholine] | 
31 | 1 to 10 nM | Cc1cccc(-c2ccn(-c3nc(N4CCOCC4)c4sc(CN5CCN(C)CC5)cc4n3)n2)c1 [Ex. 31, 4-(6-((4-methylpiperazin-1-yl)methyl)-2-(3-(m-tolyl)-1H-pyrazol-1-yl)thieno[3,2-d]pyrimidin-4-yl)morpholine] | 
32 | < 1 nM | Cc1cccc(-c2ccn(-c3nc(N4CCOCC4)c4sc(CN5CC(N(C)C)C5)cc4n3)n2)c1 [Ex. 32, N,N-dimethyl-1-((4-morpholino-2-(3-(m-tolyl)-1H-pyrazol-1-yl)thieno[3,2-d]pyrimidin-6-yl)methyl)azetidin-3-amine] | 
33 | > 100 nM | Cc1cccc(-c2ccn(-c3nc(N4CCOCC4)c4sc(CN5CCC(N6CCOCC6)CC5)cc4n3)n2)c1 [Ex. 33, 4-(1-((4-morpholino-2-(3-(m-tolyl)-1H-pyrazol-1-yl)thieno[3,2-d]pyrimidin-6-yl)methyl)piperidin-4-yl)morpholine] | 
